Source: PMC7464788, “Modification and Targeted Design of N-Terminal Truncates Derived from Brevinin with Improved Therapeutic Efficacy” (Biology, 2020)
In brackets after ≈: the same amount, converted by molar mass. Positions of bridges follow the written chain, without caps; N, C: chain ends. Residues, ends and D or L forms follow the SMILES beside them. No end group written: not given here.

Assays:
[1] = system: Staphylococcus aureus (NCTC10788); settings: cited from earlier work
From the text: (§1) Although B1PLC had better activity against bacteria, its potency was slightly lower than that of B1PLB against fungi. As we know, the more positive charge of B1PLC (Table 1) could contribute to an enhanced electrostatic interaction with the negatively charged bacterial cell envelope. Therefore, to try to combine the properties of the two peptides, we designed B1A by substitution of the Asn residue at po ...

[2] = system: Escherichia coli (NCTC10418); settings: cited from earlier work
From the text: as §1

[3] = system: Candida albicans (NCYC1467); settings: cited from earlier work
From the text: as §1

horse erythrocytes = experiment: Haemolytic assay; type: cell-based; settings: 2% (v/v) horse red blood cells, 37 °C, 2 h; 1% Triton-X 100 positive control; three times in five replicates
Experimental: The haemolytic assay was carried out to detect the cytotoxicity of each peptide to erythrocytes obtained from fresh defibrinated horse blood as described before. An appropriate volume of horse blood solution was collected via washing and transferring until the supernatant was clear. Then, 2% (v/v) suspension of red blood cells were incubated with peptide at 37 °C for 2 h. For positive and negative controls, the red blood cells were incubated with 1% (v/v) Triton-X 100 and Phosphate-buffered saline (PBS) solution, respectively. The 10% of maximal haemolysis concentration (HC10, μM) was utilised to assess the haemolytic potential. Experiments were repeated three times in five replicates.

[4] = system: Staphylococcus aureus (NCTC10788); type: cell-based
Experimental: (§2) The antimicrobial assay was carried out to detect the minimum inhibitory concentration (MIC) and the minimum bactericidal concentration (MBC) of each peptide on the microbes as described previously. Seven different microorganisms were used in the assay: Gram-positive bacteria Staphylococcus aureus (NCTC10788), Enterococcus faecalis (NCTC12697), and methicillin-resistant S. aureus (MRSA) (NCTC12493); Gram-negative bacteria Escherichia coli (NCTC10418), Pseudomonas aeruginosa (ATCC27853), and Klebsiella pneumoniae (ATCC 43816); and fungi Candida albicans (NCYC1467). Bacterial strains were inoculated and grown to mid-log phase in fresh Mueller Hinton broth (MHB) at 37 °C for overnight, then bacteria inoculum suspensions were subcultured until reaching the logarithmic growth phase by measuring OD of the cultures at wavelength 550 nm. Then, 99 µL bacteria and 1 µL peptide solution were mixed in the 96-wells microplate. For positive and negative controls, the bacteria were incubated with antibiotics (Norfloxacin for Gram-positive bacteria and Gram-negative bacteria; Amphotericin B for fungi) solution and MHB medium, respectively. Experiments were repeated five times in five replicates.

[5] = system: Pseudomonas aeruginosa (ATCC27853); type: cell-based
Experimental: as §2

[6] = system: Enterococcus faecalis (NCTC12697); type: cell-based
Experimental: as §2

[7] = system: Klebsiella pneumoniae (ATCC 43816); type: cell-based
Experimental: as §2

[8] = system: Escherichia coli (NCTC10418); type: cell-based
Experimental: as §2

[9] = system: Candida albicans (NCYC1467); type: cell-based
Experimental: as §2

[10] = system: methicillin-resistant S. aureus (MRSA) (NCTC12493); type: cell-based, Staphylococcus aureus
Experimental: as §2

| Molecule | Antimicrobial activity against S. aureus [1] | Antimicrobial activity against E. coli [2] | Antimicrobial activity against C. albicans [3] | HC10 (concentration causing 10% red cell lysis) (horse erythrocytes) | MBC S. aureus [4] | MBC P. aeruginosa [5] | MIC P. aeruginosa [5] | MBC E. faecalis [6] | MIC E. faecalis [6] | MBC K. pneumoniae [7] | MIC K. pneumoniae [7] | MBC E. coli [8] | MIC E. coli [8] | MBC C. albicans [9] | MIC C. albicans [9] | MBC MRSA [10] | MIC MRSA [10] |
| --- | --- | --- | --- | --- | --- | --- | --- | --- | --- | --- | --- | --- | --- | --- | --- | --- | --- |
| FLPVIAGVAAKFLPKIFCAITKKC (disulfide 18-24 (inferred)) [Peptide B1PLC, brevinin-1PLc, brevinin-1 peptide from the skin secretions of Lithobates palustris (Rana palustris)] | potent antimicrobial activity | potent antimicrobial activity | potent antimicrobial activity | – | – | – | – | – | – | – | – | – | – | – | – | – | – |
| CC[C@H](C)[C@@H]1NC(=O)[C@H](C)NC(=O)[C@@H](NC(=O)[C@H](Cc2ccccc2)NC(=O)[C@@H](NC(=O)[C@H](CCCCN)NC(=O)[C@H](Cc2c[nH]c3ccccc23)NC(=O)[C@@H]2CCCN2C(=O)[C@H](CC(C)C)NC(=O)[C@H](Cc2ccccc2)NC(=O)[C@@H](N)CCCCN)[C@@H](C)CC)CSSC[C@@H](C(=O)O)NC(=O)[C@H](CCCCN)NC(=O)[C@H](CCCCN)NC(=O)[C@H]([C@@H](C)O)NC1=O [KWB2] (H-KFLPWKIFCAITKKC-OH; disulfide 9-15) | – | – | – | 99.81 µM | 32 µM (≈ 58.4 µg/mL) | 256 µM (≈ 467 µg/mL) | 128 µM (≈ 234 µg/mL) | 512 µM (≈ 934 µg/mL) | 256 µM (≈ 467 µg/mL) | 128 µM (≈ 234 µg/mL) | 64 µM (≈ 117 µg/mL) | 32 µM (≈ 58.4 µg/mL) | 16 µM (≈ 29.2 µg/mL) | 64 µM (≈ 117 µg/mL) | 16 µM (≈ 29.2 µg/mL) | 64 µM (≈ 117 µg/mL) | 8 µM (≈ 14.6 µg/mL) |
| FLPLIAGLAANFLPKIFCAITKKC (disulfide 18-24 (inferred)) [Peptide B1PLB, Brevinin-1PLb, brevinin-1 peptide from the skin secretions of Lithobates palustris (Rana palustris)] | potent antimicrobial activity | potent antimicrobial activity | potent antimicrobial activity | – | – | – | – | – | – | – | – | – | – | – | – | – | – |
